Experimental data taken from paper PMC6376162, “HEXIM1 Peptide Exhibits Antimicrobial Activity Against Antibiotic Resistant Bacteria Through Guidance of Cell Penetrating Peptide” (Frontiers in Microbiology, 2019).
Values after ≈ are worked out from the molar mass of the structure shown. Residues, ends and D or L forms follow the SMILES beside them.

Assays:
[1] = test system: E. faecalis VRE; type: cell-based, Enterococcus faecalis; details: 20 h
Procedure: (§1) Bacterial strains were either purchased from American Type Culture Collection (ATCC, United States) or provided by National University Hospital, Singapore. Prior to assays, all bacteria, except for Enterococcus faecalis, were grown overnight to stationary phase at 37°C in Luria Bertani (LB) broth (Novagen, Germany). The overnight cultures were 10-fold diluted in fresh cation-adjusted Mueller Hinton II broth (MHBII) (Becton Dickinson, United States) and grown for additional few hours at 37°C to obtain mid-log phase culture. E. faecalis strains were grown in M17 broth (Becton Dickenson, United States) for both overnight and mid-log phase culturing. Human keratinocyte cell line, HaCaT, was purchased from Creative Bioarray (United States) and cultured in Dulbecco’s Modified Eagle’s medium with 4.5 g/L glucose, 2 mM L-glutamine, and 10% fetal bovine serum.
(§2) Minimum inhibition concentrations (MICs) were determined by using broth microdilution method in a 96-well microtiter plate according to guidelines of the Clinical and Laboratory Standards Institute ([CLSI, 2012]). Briefly, mid-log phase cultures were diluted with MHBII and added to wells containing serially diluted peptides to give final cell concentration of 5 × 10^5 cells ml^−1. Peptides were prepared in twofold serial dilution series to give a final concentration range from 2 to 128 μM. Cecropin P1 (CECP1) and Cap11-1-18m^2 (CapM2) treated cells were used as positive controls, while untreated cells were used as a negative control.
(§3) To further assess the potency of peptides, wells with no visible growth from MIC tests were subsequently plated on LB agar plates and incubated overnight at 37°C. […] Both MIC and MBC assays were conducted on three to five separate occasions and if results were within one doubling dilutions of each other, the highest reading was recorded for analysis.

[2] = test system: P. aeruginosa 544; type: cell-based, Pseudomonas aeruginosa; details: 544, 20 h
Procedure: as §1, §2, §3

[3] = test system: panel of antibiotic sensitive and resistant bacteria; type: cell-based; details: 20 h
Procedure: as §1, §2, §3

[4] = test system: Escherichia coli BAA2523; type: cell-based; details: BAA2523, 20 h
Procedure: as §1, §2, §3

[5] = test system: Enterococcus faecalis SEN; type: cell-based; details: 20 h
Procedure: as §1, §2, §3

[6] = test system: Escherichia coli 25922; type: cell-based; details: 25922, 20 h
Procedure: as §1, §2, §3

[7] = test system: Pseudomonas aeruginosa 27853; type: cell-based; details: 27853, 20 h
Procedure: as §1, §2, §3

[8] = test system: Staphylococcus aureus 29213; type: cell-based; details: 29213, 20 h
Procedure: as §1, §2, §3

[9] = test system: S. aureus 43300; type: cell-based, Staphylococcus aureus; details: 43300, 20 h
Procedure: as §1, §2, §3

[10] = test system: mammalian cells; design: method as in Neo et al., 2016; details: cited from earlier work
[11] = test system: HaCaT human keratinocyte cell line; test: Viability assay for mammalian cells (CellTiter-Glo); type: cell-based; details: overnight; for cytotoxicity against HaCat cells: 30 μM; for toxicity against HaCaT cells at the highest concentration: 100 μM
Procedure: as §1
HaCat cells (1 × 10^5 cells mL^−1) were seeded in a 96-well clear-bottomed white plate (Corning) in Dulbecco’s Modified Eagle’s medium with 4.5 g/L glucose, 2 mM L-glutamine, and 10% fetal bovine serum and incubated overnight at 37°C. On the following day, cells were treated with the indicated peptides at serial-diluted concentrations and incubated overnight. CellTiter-Glo reagent (Promega) was utilized to determine the cell viability based on the manufacturer’s instructions.

| MIC [1] [µM] | MIC [4] [µM] | MIC [5] [µM] | MIC [6] [µM] | MIC [7] [µM] | MIC [8] [µM] | MIC [9] [µM] | MIC [2] [µM] | SMILES | MBC [1] [µM] | MBC [2] [µM] | MBC [4] [µM] | MBC [5] [µM] | MBC [6] [µM] | MBC [7] [µM] | MBC [8] [µM] | MBC [9] [µM] | cytotoxicity against HaCat cells [11] | toxicity against HaCaT cells at the highest concentration [11] | further results |
| --- | --- | --- | --- | --- | --- | --- | --- | --- | --- | --- | --- | --- | --- | --- | --- | --- | --- | --- | --- |
| 16 (≈ 40.4 µg/mL) | >128 | 32 (≈ 80.7 µg/mL) | 64 (≈ 161 µg/mL) | >128 | 32 (≈ 80.7 µg/mL) | 16 (≈ 40.4 µg/mL) |  | CC(C)C[C@H](NC(=O)[C@@H](N)CCC(N)=O)C(=O)NCC(=O)N[C@@H](CCCNC(=N)N)C(=O)N[C@@H](CCCNC(=N)N)C(=O)N[C@@H](CCCNC(=N)N)C(=O)N[C@@H](Cc1c[nH]cn1)C(=O)N[C@@H](CCCNC(=N)N)C(=O)N[C@@H](CCCNC(=N)N)C(=O)N[C@@H](CCCNC(=N)N)C(=O)N1CCC[C@H]1C(=O)N[C@@H](CO)C(=O)N[C@@H](CCCNC(=N)N)C(=O)N[C@@H](CCCNC(=N)N)C(=O)N[C@@H](CCCNC(=N)N)C(=O)N[C@@H](CCCNC(=N)N)C(=O)N[C@@H](Cc1c[nH]cn1)C(=O)N[C@@H](Cc1c[nH]c2ccccc12)C(=O)O [BR-RRR12] (H-QLGRRRHRRRPSRRRRHW-OH) | >128 | >128 | >128 | >128 | 64 (≈ 161 µg/mL) | >128 | >128 |  |  |  | MICs (range over inhibited strains) [3]: 16 to 64 µM |
| >128 | >128 | >128 | >128 | >128 | 128 (≈ 301 µg/mL) |  | >128 | CC(C)C[C@H](NC(=O)[C@@H](N)CCC(N)=O)C(=O)NCC(=O)N[C@@H](CCCCN)C(=O)N[C@@H](CCCCN)C(=O)N[C@@H](CCCCN)C(=O)N[C@@H](Cc1c[nH]cn1)C(=O)N[C@@H](CCCNC(=N)N)C(=O)N[C@@H](CCCNC(=N)N)C(=O)N[C@@H](CCCNC(=N)N)C(=O)N1CCC[C@H]1C(=O)N[C@@H](CO)C(=O)N[C@@H](CCCCN)C(=O)N[C@@H](CCCCN)C(=O)N[C@@H](CCCCN)C(=O)N[C@@H](CCCNC(=N)N)C(=O)N[C@@H](Cc1c[nH]cn1)C(=O)N[C@@H](Cc1c[nH]c2ccccc12)C(=O)O [BR] (H-QLGKKKHRRRPSKKKRHW-OH) | >128 | >128 | >128 | >128 | >128 | >128 | >128 | >128 |  |  | cytotoxic effects on mammalian cells [10]: failed to cause any detectable cytotoxic effects |
| >128 | 64 (≈ 214 µg/mL) | >128 | 4 (≈ 13.4 µg/mL) | 16 (≈ 53.4 µg/mL) | >128 | >128 | 16 (≈ 53.4 µg/mL) | CC[C@H](C)[C@H](NC(=O)CNC(=O)[C@H](CCC(=O)O)NC(=O)[C@H](CO)NC(=O)[C@@H](NC(=O)[C@H](CCCNC(=N)N)NC(=O)[C@H](CCCCN)NC(=O)[C@H](CCCCN)NC(=O)[C@H](C)NC(=O)[C@H](CO)NC(=O)[C@H](CC(N)=O)NC(=O)[C@H](CCC(=O)O)NC(=O)[C@H](CC(C)C)NC(=O)[C@H](CCCCN)NC(=O)[C@H](CCCCN)NC(=O)[C@H](C)NC(=O)[C@@H](NC(=O)[C@H](CCCCN)NC(=O)[C@H](CO)NC(=O)[C@H](CC(C)C)NC(=O)[C@H](Cc1c[nH]c2ccccc12)NC(=O)[C@@H](N)CO)[C@@H](C)O)[C@@H](C)CC)C(=O)N[C@@H](C)C(=O)N[C@H](C(=O)N[C@@H](C)C(=O)N[C@H](C(=O)N[C@@H](CCC(N)=O)C(=O)NCC(=O)NCC(=O)N1CCC[C@H]1C(=O)N[C@@H](CCCNC(=N)N)C(=O)O)[C@@H](C)CC)[C@@H](C)CC [CECP1, Cecropin P1, reference compound] (H-SWLSKTAKKLENSAKKRISEGIAIAIQGGPR-OH) | >128 | 32 (≈ 107 µg/mL) | 64 (≈ 214 µg/mL) | >128 | 4 (≈ 13.4 µg/mL) | 32 (≈ 107 µg/mL) | >128 | >128 |  |  |  |
| 16 (≈ 37.4 µg/mL) | 32 (≈ 74.8 µg/mL) | 16 (≈ 37.4 µg/mL) | 16 (≈ 37.4 µg/mL) | 16 (≈ 37.4 µg/mL) | 16 (≈ 37.4 µg/mL) | 16 (≈ 37.4 µg/mL) | 16 (≈ 37.4 µg/mL) | CC[C@H](C)[C@H](NC(=O)[C@H](CC(C)C)NC(=O)[C@H](CCCCN)NC(=O)[C@H](CC(C)C)NC(=O)[C@H](CC(C)C)NC(=O)[C@H](CCCCN)NC(=O)[C@H](CCCNC(=N)N)NC(=O)[C@H](Cc1ccccc1)NC(=O)[C@H](CC(C)C)NC(=O)[C@H](CCCCN)NC(=O)[C@H](CCCNC(=N)N)NC(=O)[C@H](CC(C)C)NC(=O)[C@@H](N)CCCCN)C(=O)N[C@@H](CCCNC(=N)N)C(=O)N[C@@H](CCCCN)C(=O)N[C@@H](CC(C)C)C(=O)N[C@@H](CC(C)C)C(=O)N[C@@H](CCCNC(=N)N)C(=O)O [CapM2, Cap11-1-18m^2, reference compound] (H-KLRKLFRKLLKLIRKLLR-OH) | 16 (≈ 37.4 µg/mL) | 32 (≈ 74.8 µg/mL) | 64 (≈ 150 µg/mL) | 16 (≈ 37.4 µg/mL) | 32 (≈ 74.8 µg/mL) | 32 (≈ 74.8 µg/mL) | 32 (≈ 74.8 µg/mL) | 16 (≈ 37.4 µg/mL) |  |  |  |
|  |  |  |  |  |  |  |  | CC[C@H](C)[C@H](NC(=O)[C@H](CCCCN)NC(=O)[C@@H](NC(=O)[C@H](CCC(N)=O)NC(=O)[C@@H](N)CCCNC(=N)N)[C@@H](C)CC)C(=O)N[C@@H](Cc1c[nH]c2ccccc12)C(=O)N[C@@H](Cc1ccccc1)C(=O)N[C@@H](CCC(N)=O)C(=O)N[C@@H](CC(N)=O)C(=O)N[C@@H](CCCNC(=N)N)C(=O)N[C@@H](CCCNC(=N)N)C(=O)N[C@@H](Cc1c[nH]c2ccccc12)C(=O)NCC(=O)NCC(=O)N[C@@H](CCC(N)=O)C(=O)N[C@@H](CC(C)C)C(=O)NCC(=O)N[C@@H](CCCCN)C(=O)N[C@@H](CCCCN)C(=O)N[C@@H](CCCCN)C(=O)N[C@@H](Cc1c[nH]cn1)C(=O)N[C@@H](CCCNC(=N)N)C(=O)N[C@@H](CCCNC(=N)N)C(=O)N[C@@H](CCCNC(=N)N)C(=O)N1CCC[C@H]1C(=O)N[C@@H](CO)C(=O)N[C@@H](CCCCN)C(=O)N[C@@H](CCCCN)C(=O)N[C@@H](CCCCN)C(=O)N[C@@H](CCCNC(=N)N)C(=O)N[C@@H](Cc1c[nH]cn1)C(=O)N[C@@H](Cc1c[nH]c2ccccc12)C(=O)O [Pen-BR] (H-RQIKIWFQNRRWGGQLGKKKHRRRPSKKKRHW-OH) |  |  |  |  |  |  |  |  | little or no cytotoxicity | toxic activity | effect on HaCaT cells under lower concentrations ([11]; below 100 μM (10, 30, 50 μM)): did not cause any significant effects |
|  |  |  |  |  |  |  |  | CC[C@H](C)[C@H](NC(=O)[C@H](CCCCN)NC(=O)[C@@H](NC(=O)[C@H](CCC(N)=O)NC(=O)[C@@H](N)CCCNC(=N)N)[C@@H](C)CC)C(=O)N[C@@H](Cc1c[nH]c2ccccc12)C(=O)N[C@@H](Cc1ccccc1)C(=O)N[C@@H](CCC(N)=O)C(=O)N[C@@H](CC(N)=O)C(=O)N[C@@H](CCCNC(=N)N)C(=O)N[C@@H](CCCNC(=N)N)C(=O)N[C@@H](Cc1c[nH]c2ccccc12)C(=O)NCC(=O)NCC(=O)N[C@@H](CCC(N)=O)C(=O)N[C@@H](CC(C)C)C(=O)NCC(=O)N[C@@H](CCCNC(=N)N)C(=O)N[C@@H](CCCNC(=N)N)C(=O)N[C@@H](CCCNC(=N)N)C(=O)N[C@@H](Cc1c[nH]cn1)C(=O)N[C@@H](CCCNC(=N)N)C(=O)N[C@@H](CCCNC(=N)N)C(=O)N[C@@H](CCCNC(=N)N)C(=O)N1CCC[C@H]1C(=O)N[C@@H](CO)C(=O)N[C@@H](CCCNC(=N)N)C(=O)N[C@@H](CCCNC(=N)N)C(=O)N[C@@H](CCCNC(=N)N)C(=O)N[C@@H](CCCNC(=N)N)C(=O)N[C@@H](Cc1c[nH]cn1)C(=O)N[C@@H](Cc1c[nH]c2ccccc12)C(=O)O [Pen-RRR] (H-RQIKIWFQNRRWGGQLGRRRHRRRPSRRRRHW-OH) |  |  |  |  |  |  |  |  | little or no cytotoxicity | toxic activity |  |
